Publication PMC11995724, “Antibiotic target discovery by integrated phenotypic and activity-based profiling of electrophilic fragments” (Cell chemical biology, 2025)

Experiment: in vitro
Details: human, hek293t cells

First: C=CC(=O)NCc1noc2c1CC(C)(C)CC2 [2-L07, N-[(5,5-dimethyl-4,5,6,7-tetrahydro-1,2-benzoxazol-3-yl)methyl]prop-2-enamide]
Second: C=CC(=O)NCc1nc(OC)cc(OC)n1 [2-M20, N-[(4,6-dimethoxypyrimidin-2-yl)methyl]prop-2-enamide]
The viability at 48 h, 25 µM of the first is lower: 60% for the first, 99.2% for the second.

Compared with `C=CC(=O)N1CCC(C(=O)N(CC)Cc2occc2C)CC1` [2-L08, N-ethyl-N-[(3-methylfuran-2-yl)methyl]-1-(prop-2-enoyl)piperidine-4-carboxamide], `C=CC(=O)N1CCC(C(=O)Nc2nnc(CC)s2)CC1` [2-M10, N-(5-ethyl-1,3,4-thiadiazol-2-yl)-1-(prop-2-enoyl)piperidine-4-carboxamide] is higher in viability at 48 h, 25 µM: 88.8% for the first, 98.8% for the second.

Going from `C=CC(=O)NCCn1cc(C2CCOC2)cn1` (stereo not drawn) [2-L09, N-{2-[4-(oxolan-3-yl)-1H-pyrazol-1-yl]ethyl}prop-2-enamide] to `C=CC(=O)NCc1nnc(C2CCOCC2)[nH]1` [2-M22, N-{[5-(oxan-4-yl)-4H-1,2,4-triazol-3-yl]methyl}prop-2-enamide], the viability at 48 h, 25 µM rises from 53.7% to 93.3%.

Compared with `C=CC(=O)N(CC)CC(=O)N1CCC(c2nncn2C)CC1` [2-L10, N-ethyl-N-{2-[4-(4-methyl-4H-1,2,4-triazol-3-yl)piperidin-1-yl]-2-oxoethyl}prop-2-enamide], `C=CC(=O)N(CC)CC(=O)N1CCCC1c1cn(C)nc1C` (stereo not drawn) [2-N12, N-{2-[2-(1,3-dimethyl-1H-pyrazol-4-yl)pyrrolidin-1-yl]-2-oxoethyl}-N-ethylprop-2-enamide] is higher in viability at 48 h, 25 µM: 72.6% for the first, 85.2% for the second.

Going from `C=CC(=O)NCCNS(=O)(=O)c1cc(C)ccc1F` [2-L11, N-[2-(2-fluoro-5-methylbenzenesulfonamido)ethyl]prop-2-enamide] to `C=CC(=O)NCc1ccc2oc(=O)n(C)c2c1` [2-L15, N-[(3-methyl-2-oxo-2,3-dihydro-1,3-benzoxazol-5-yl)methyl]prop-2-enamide], the viability at 48 h, 25 µM rises from 39.4% to 55%.

First: C=CC(=O)N1CCC(C(=O)N2CCCC2C2OCCO2)CC1 (stereo not drawn) [2-L12, 1-{4-[2-(1,3-dioxolan-2-yl)pyrrolidine-1-carbonyl]piperidin-1-yl}prop-2-en-1-one]
Second: C=CC(=O)N1CCC(C(=O)N2CCCC(C3OCCO3)C2)CC1 (stereo not drawn) [2-L16, 1-{4-[3-(1,3-dioxolan-2-yl)piperidine-1-carbonyl]piperidin-1-yl}prop-2-en-1-one]
The viability at 48 h, 25 µM of the first is lower: 48.7% for the first, 58% for the second.

Going from `C=CC(=O)NC1CCCN(Cc2ccccc2)C1=O` (stereo not drawn) [2-L13, N-(1-benzyl-2-oxopiperidin-3-yl)prop-2-enamide] to `C=CC(=O)NC1CCN(c2ccccc2S(=O)(=O)CC)CC1` [2-M03, N-{1-[2-(ethanesulfonyl)phenyl]piperidin-4-yl}prop-2-enamide], the viability at 48 h, 25 µM rises from 60.1% to 82.2%.

Going from `C=CC(=O)N1CCC(C(=O)N2CCOC(c3cccc(F)c3)C2)CC1` (stereo not drawn) [2-L14, 1-{4-[2-(3-fluorophenyl)morpholine-4-carbonyl]piperidin-1-yl}prop-2-en-1-one] to `C=CC(=O)N1CCC(C(=O)N2CCCC(c3cnn(C)c3)C2)CC1` (stereo not drawn) [2-N16, 1-{4-[3-(1-methyl-1H-pyrazol-4-yl)piperidine-1-carbonyl]piperidin-1-yl}prop-2-en-1-one], the viability at 48 h, 25 µM falls from 102% to 99.6%.

Going from `C=CC(=O)NCc1ccccc1S(=O)(=O)N1CCCC1` [2-L17, N-{[2-(pyrrolidine-1-sulfonyl)phenyl]methyl}prop-2-enamide] to `C=CC(=O)NCc1cccc(N2C(=O)NC3(CCCC3)C2=O)c1` [2-M11, N-[(3-{2,4-dioxo-1,3-diazaspiro[4.4]nonan-3-yl}phenyl)methyl]prop-2-enamide], the viability at 48 h, 25 µM rises from 68.6% to 89.7%.

Going from `C=CC(=O)Nc1ccc(C(=O)N(C)C[C@@H]2CCC(=O)N2)cc1` [2-L18, N-methyl-N-{[(2S)-5-oxopyrrolidin-2-yl]methyl}-4-(prop-2-enamido)benzamide] to `C=CC(=O)Nc1ccc(C(=O)NC2CCN(S(C)(=O)=O)CC2)cc1` [2-M21, N-(1-methanesulfonylpiperidin-4-yl)-4-(prop-2-enamido)benzamide], the viability at 48 h, 25 µM falls from 98.8% to 90.2%.

Going from `C=CC(=O)NCC1(n2ccnn2)CC1` [2-L19, N-{[1-(1H-1,2,3-triazol-1-yl)cyclopropyl]methyl}prop-2-enamide] to `C=CC(=O)NCCCn1ccnc1C#N` [2-N05, N-[3-(2-cyano-1H-imidazol-1-yl)propyl]prop-2-enamide], the viability at 48 h, 25 µM rises from 45.7% to 76.3%.

Compared with `C=CC(=O)N1CCC(C(=O)N2CCCN(c3nccs3)CC2)CC1` [2-L20, 1-{4-[4-(1,3-thiazol-2-yl)-1,4-diazepane-1-carbonyl]piperidin-1-yl}prop-2-en-1-one], `C=CC(=O)N1CCCC(Oc2ccnc(C(=O)NC)c2)C1` (stereo not drawn) [2-L22, N-methyl-4-{[1-(prop-2-enoyl)piperidin-3-yl]oxy}pyridine-2-carboxamide] is higher in viability at 48 h, 25 µM: 90.1% for the first, 99.6% for the second.

First: C=CC(=O)N1CCCCC1C1CCCO1 (stereo not drawn) [2-L21, 1-[2-(oxolan-2-yl)piperidin-1-yl]prop-2-en-1-one]
Second: C=CC(=O)N1CCCCC1CNC(C)=O (stereo not drawn) [2-M07, N-{[1-(prop-2-enoyl)piperidin-2-yl]methyl}acetamide]
The viability at 48 h, 25 µM of the first is lower: 66.2% for the first, 186% for the second.

Compared with `C=CC(=O)N(C)CC(=O)N1CCCC1c1nc(C)no1` (stereo not drawn) [2-M04, N-methyl-N-{2-[2-(3-methyl-1,2,4-oxadiazol-5-yl)pyrrolidin-1-yl]-2-oxoethyl}prop-2-enamide], `C=CC(=O)N(C)Cc1noc(C2CC2)n1` [2-N17, N-[(5-cyclopropyl-1,2,4-oxadiazol-3-yl)methyl]-N-methylprop-2-enamide] is lower in viability at 48 h, 25 µM: 78.5% for the first, 60.3% for the second.

Going from `C=CC(=O)N(Cc1ccc(OC)cc1)[C@@H]1CCCC[C@H]1O` [2-M05, N-[(1R,2R)-2-hydroxycyclohexyl]-N-[(4-methoxyphenyl)methyl]prop-2-enamide] to `C=CC(=O)Nc1ccc(C(=O)N2CCCCC2CS(C)(=O)=O)cc1` (stereo not drawn) [2-N18, N-{4-[2-(methanesulfonylmethyl)piperidine-1-carbonyl]phenyl}prop-2-enamide], the viability at 48 h, 25 µM rises from 97.6% to 102%.

Compared with `C=CC(=O)NC(Cn1ccnc1)c1ccccc1` (stereo not drawn) [2-M06, N-[2-(1H-imidazol-1-yl)-1-phenylethyl]prop-2-enamide], `C=CC(=O)N[C@@H](CN(C)C)c1ccccc1` [2-M19, N-[(1R)-2-(dimethylamino)-1-phenylethyl]prop-2-enamide] is higher in viability at 48 h, 25 µM: 84.5% for the first, 87.1% for the second.

Going from `C=CC(=O)Nc1c(C)ccn2ncnc12` [2-M08, N-{7-methyl-[1,2,4]triazolo[1,5-a]pyridin-8-yl}prop-2-enamide] to `C=CC(=O)Nc1cnc2cc(C)nn2c1` [2-M13, N-{2-methylpyrazolo[1,5-a]pyrimidin-6-yl}prop-2-enamide], the viability at 48 h, 25 µM rises from 92% to 136%.

First: C=CC(=O)NCCN1CCCCC1C (stereo not drawn) [2-M09, N-[2-(2-methylpiperidin-1-yl)ethyl]prop-2-enamide]
Second: C=CC(=O)NCCC(=O)Nc1nc2n(n1)CCCC2 [2-M14, N-[2-({5H,6H,7H,8H-[1,2,4]triazolo[1,5-a]pyridin-2-yl}carbamoyl)ethyl]prop-2-enamide]
The viability at 48 h, 25 µM of the first is higher: 182% for the first, 109% for the second.

Going from `C=CC(=O)NCCc1nc(-c2ccccc2)nn1C` [2-M12, N-[2-(1-methyl-3-phenyl-1H-1,2,4-triazol-5-yl)ethyl]prop-2-enamide] to `C=CC(=O)NCCn1nnc2ccccc21` [2-N11, N-[2-(1H-1,2,3-benzotriazol-1-yl)ethyl]prop-2-enamide], the viability at 48 h, 25 µM falls from 87.7% to 67.3%.

Going from `C=CC(=O)N1CCOCC2(CC2)C1` [2-M15, 1-{5-oxa-8-azaspiro[2.6]nonan-8-yl}prop-2-en-1-one] to `C=CC(=O)N1CCOCC1CC(=O)c1ccco1` (stereo not drawn) [2-M17, 1-{3-[2-(furan-2-yl)-2-oxoethyl]morpholin-4-yl}prop-2-en-1-one], the viability at 48 h, 25 µM rises from 180% to 194%.

Going from `C=CC(=O)NCc1ccc(C(=O)N2CCC(c3nnc(C)o3)CC2)cc1` [2-M18, N-({4-[4-(5-methyl-1,3,4-oxadiazol-2-yl)piperidine-1-carbonyl]phenyl}methyl)prop-2-enamide] to `C=CC(=O)N(C)CC(=O)NC1CCN(C(=O)c2ccc(C)cc2)CC1` [2-N14, N-methyl-N-({[1-(4-methylbenzoyl)piperidin-4-yl]carbamoyl}methyl)prop-2-enamide], the viability at 48 h, 25 µM falls from 87.6% to 66.3%.

Compared with `C=CC(=O)NCc1nc2ccccc2n1C1CC1` [2-N03, N-[(1-cyclopropyl-1H-1,3-benzodiazol-2-yl)methyl]prop-2-enamide], `C=CC(=O)NCCn1cnc2ccsc2c1=O` [2-N15, N-(2-{4-oxo-3H,4H-thieno[3,2-d]pyrimidin-3-yl}ethyl)prop-2-enamide] is lower in viability at 48 h, 25 µM: 69.4% for the first, 66% for the second.

Going from `C=CC(=O)N(C)CC(=O)N1CCC(c2nc3c(s2)CCCC3)CC1` [2-N04, N-methyl-N-{2-oxo-2-[4-(4,5,6,7-tetrahydro-1,3-benzothiazol-2-yl)piperidin-1-yl]ethyl}prop-2-enamide] to `C=CC(=O)N(C)CC(=O)N1CCc2ccc(S(C)(=O)=O)cc2CC1` [2-N08, N-[2-(7-methanesulfonyl-2,3,4,5-tetrahydro-1H-3-benzazepin-3-yl)-2-oxoethyl]-N-methylprop-2-enamide], the viability at 48 h, 25 µM rises from 92.5% to 95.1%.

Going from `C=CC(=O)N(CC)CC(=O)NC1CCN(C(C)=O)c2ccccc21` (stereo not drawn) [2-N06, N-{[(1-acetyl-1,2,3,4-tetrahydroquinolin-4-yl)carbamoyl]methyl}-N-ethylprop-2-enamide] to `C=CC(=O)N(C)CC(=O)N1CCN(c2nsc3ccccc23)CC1` [2-N10, N-{2-[4-(1,2-benzothiazol-3-yl)piperazin-1-yl]-2-oxoethyl}-N-methylprop-2-enamide], the viability at 48 h, 25 µM falls from 99.7% to 1.45%.

First: C=CC(=O)NC(c1nccs1)C(F)(F)F (stereo not drawn) [2-N07, N-[2,2,2-trifluoro-1-(1,3-thiazol-2-yl)ethyl]prop-2-enamide]
Second: C=CC(=O)NC(c1ccc(F)cc1)c1nccn1C (stereo not drawn) [2-N09, N-[(4-fluorophenyl)(1-methyl-1H-imidazol-2-yl)methyl]prop-2-enamide]
The viability at 48 h, 25 µM of the first is higher: 84.1% for the first, 45.3% for the second.

Work on `C=CC(=O)NCCCc1conc1C` [2-N13, N-[3-(3-methyl-1,2-oxazol-4-yl)propyl]prop-2-enamide] yielded a viability at 48 h, 25 µM of 70.3%.
